Test results reported in ChEMBL document CHEMBL1201862, “PubChem BioAssay data set” (2004).
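Protocol summary: plate cells (96-well), add compound at 5 concentrations, incubate 48 h, interpolate endpoints linearly. GI50 marks 50% less growth.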 Calls of active or inactive are those of the source. No stated cut-off is given here; in the data, active = GI50 up to about 1.1 µM and inactive = higher.

What was measured:
Assay in all cases: NCI-60 cell line screen, 48 h
SNB-19 = system: SNB-19
KM-20L2 = system: KM-20L2
SN12C = system: SN12C
LOX IMVI = system: LOX IMVI
IGROV-1 = system: IGROV-1
HOP-62 = system: HOP-62
OVCAR-5 = system: OVCAR-5
A549 = system: A549
A498 = system: A498
RXF 393 = system: RXF 393
HOP-92 = system: HOP-92
SW-620 = system: SW-620
COLO 205 = system: COLO 205
SR = system: SR
NCI-H460 = system: NCI-H460
NCI-H226 = system: NCI-H226
HCC 2998 = system: HCC 2998
CCRF-CEM = system: CCRF-CEM
RPMI-8226 = system: RPMI-8226
BT-549 = system: BT-549

Measured: GI50

N#Cc1cc([N+](=O)[O-])ccc1NC(=O)C(=O)C(C(=O)/C=C/c1ccccc1)C1OC(=O)c2ccccc21 (stereo not drawn)
inactive: SNB-19 > 100 µM | KM-20L2 > 100 µM | SN12C > 100 µM | LOX IMVI > 100 µM | IGROV-1 > 100 µM | HOP-62 > 100 µM | OVCAR-5 > 100 µM | A549 > 100 µM | A498 > 100 µM | RXF 393 60.5 µM | HOP-92 > 100 µM | SW-620 > 100 µM | COLO 205 > 100 µM | SR 1.69 µM | NCI-H460 > 100 µM | NCI-H226 > 100 µM | HCC 2998 > 100 µM | CCRF-CEM 8.65 µM

NN1C(=O)C(CCO)S/C1=N/N=C1/SC(CCO)C(=O)N1N (stereo not drawn)
inactive: SNB-19 > 100 µM | KM-20L2 > 100 µM | SN12C > 100 µM | LOX IMVI > 100 µM | IGROV-1 > 100 µM | HOP-62 > 100 µM | OVCAR-5 > 100 µM | A549 > 100 µM | A498 > 100 µM | RXF 393 > 100 µM | RPMI-8226 > 100 µM | HOP-92 > 100 µM | SW-620 > 100 µM | COLO 205 > 100 µM | SR > 100 µM | NCI-H460 > 100 µM | NCI-H226 > 100 µM | HCC 2998 > 100 µM | CCRF-CEM > 100 µM

CN(Cc1cnc2nc(N)nc(N)c2n1)c1ccc(C(=O)NC(CCC(=O)O)C(=O)O)c2ccccc12 (stereo not drawn)
active: SNB-19 0.0612 µM | BT-549 0.092 µM | KM-20L2 0.01 µM | SN12C 0.00697 µM | LOX IMVI 0.000508 µM | IGROV-1 0.0137 µM | HOP-62 < 0.0185 µM | OVCAR-5 0.0185 µM | A549 0.00286 µM | A498 0.0526 µM | RXF 393 < 0.1 µM | RPMI-8226 0.00764 µM | SW-620 0.00137 µM | COLO 205 0.0391 µM | SR 0.0025 µM | NCI-H460 0.0011 µM | NCI-H226 < 0.1 µM | HCC 2998 0.00145 µM | CCRF-CEM 0.000843 µM

CCOc1ccc(NC(=O)/C(CC(=O)c2c[n+]([O-])c3ccccc3[n+]2[O-])=N\OCCCc2ccccc2)cc1
inactive: SNB-19 > 100 µM | KM-20L2 > 100 µM | SN12C > 100 µM | IGROV-1 > 100 µM | HOP-62 > 100 µM | OVCAR-5 > 100 µM | A549 > 100 µM | A498 > 100 µM | RXF 393 > 100 µM | RPMI-8226 > 100 µM | HOP-92 16.9 µM | SW-620 > 100 µM | COLO 205 > 100 µM | SR > 100 µM | NCI-H460 > 100 µM | NCI-H226 44.9 µM | HCC 2998 > 100 µM | CCRF-CEM 42.2 µM

CC(=O)OC1CC2(c3ccccc3)C(=O)c3ccccc3N2O1 (stereo not drawn)
inactive: SNB-19 > 100 µM | KM-20L2 > 100 µM | SN12C > 100 µM | IGROV-1 > 100 µM | HOP-62 > 100 µM | A549 > 100 µM | A498 > 100 µM | RXF 393 > 100 µM | RPMI-8226 > 100 µM | HOP-92 65.8 µM | SW-620 > 100 µM | COLO 205 > 100 µM | SR > 100 µM | NCI-H226 > 100 µM | HCC 2998 > 100 µM | CCRF-CEM > 100 µM

COc1ccc(NC(=O)C(=O)C(C(=O)c2ccccc2)C2OC(=O)c3ccccc32)c([N+](=O)[O-])c1 (stereo not drawn)
inactive: SNB-19 > 100 µM | KM-20L2 > 100 µM | SN12C > 100 µM | LOX IMVI > 100 µM | IGROV-1 > 100 µM | HOP-62 > 100 µM | OVCAR-5 > 100 µM | A549 > 100 µM | A498 > 100 µM | RXF 393 > 100 µM | RPMI-8226 > 100 µM | HOP-92 > 100 µM | SW-620 > 100 µM | COLO 205 > 100 µM | SR > 100 µM | NCI-H460 > 100 µM | NCI-H226 > 100 µM | HCC 2998 > 100 µM | CCRF-CEM > 100 µM

Oc1ccc2ccccc2c1/N=N/c1ccc(F)cc1
inactive: SNB-19 > 100 µM | KM-20L2 > 100 µM | SN12C 42.7 µM | LOX IMVI > 100 µM | IGROV-1 > 100 µM | HOP-62 > 100 µM | OVCAR-5 > 100 µM | A549 > 100 µM | A498 > 100 µM | RXF 393 > 100 µM | RPMI-8226 > 100 µM | HOP-92 > 100 µM | SW-620 > 100 µM | COLO 205 > 100 µM | SR > 100 µM | NCI-H460 > 100 µM | HCC 2998 > 100 µM | CCRF-CEM > 100 µM

Cc1c2cc[n+](CCN3CCCCC3)cc2c(C)c2c1[nH]c1ccc(O)cc12
inactive: SNB-19 1.16 µM | BT-549 11.8 µM | KM-20L2 6.43 µM | LOX IMVI 4.41 µM | IGROV-1 2.89 µM | HOP-62 2.32 µM | OVCAR-5 10.5 µM | A549 1.35 µM | A498 10.6 µM | RXF 393 5.2 µM | RPMI-8226 2.48 µM | HOP-92 5.11 µM | SW-620 3.19 µM | COLO 205 1.66 µM | HCC 2998 3.12 µM
active: SN12C 0.401 µM | SR 0.0723 µM | NCI-H460 0.418 µM | CCRF-CEM 1.11 µM

COC(=O)C12CCC(CC1=O)C2(C)C (stereo not drawn)
inactive: SNB-19 > 100 µM | KM-20L2 > 100 µM | SN12C > 100 µM | LOX IMVI > 100 µM | IGROV-1 > 100 µM | HOP-62 > 100 µM | A549 > 100 µM | A498 > 100 µM | RXF 393 > 100 µM | RPMI-8226 > 100 µM | HOP-92 > 100 µM | SW-620 > 100 µM | COLO 205 > 100 µM | SR > 100 µM | NCI-H460 > 100 µM | NCI-H226 > 100 µM | HCC 2998 > 100 µM
